Earlier results in patent publication US20240139257A1, “METHODS AND COMPOSITIONS FOR ALOPECIA TREATMENT USING FIBROBLASTS AND FIBROBLAST-DERIVED PRODUCTS” (FIGENE, LLC, priority 2021, published 2024).

What was measured:
[1] = test system: tumor necrosis factor-alpha mRNA; conditions: scalp biopsies, AA patients, after successful DCP treatment
IL-2 mRNA = conditions: scalp biopsies, AA patients, after successful DCP treatment
IL-8 mRNA = conditions: scalp biopsies, AA patients, after successful DCP treatment
IL-10 mRNA = conditions: scalp biopsies, AA patients, after successful DCP treatment
[2] = test system: interferon (IFN)-gamma mRNA; conditions: scalp biopsies, AA patients, after successful DCP treatment; still above the constitutive level found in controls

SMILES: O=c1c(-c2ccccc2)c1-c1ccccc1 [DCP, diphenylcyclopropenone]
- mRNA expression of tumor necrosis factor-alpha after DCP treatment [1]: increased
- Therapeutic benefit of topical immunotherapy in AA patients (alopecia areata (AA)): some therapeutic benefits
- mRNA expression of IL-2 after DCP treatment (IL-2 mRNA): increased
- mRNA expression of IL-8 after DCP treatment (IL-8 mRNA): increased
- mRNA expression of IL-10 after DCP treatment (IL-10 mRNA): increased
- IFN-gamma expression after DCP treatment [2]: reduced
